In paper PMC12032945, “Estrogenic activity of E2-conjugated GLP-1 is mediated by intracellular endolysosomal acidification and estrone metabolism” (Molecular Metabolism, 2025):

What was measured:
ERα and SP-1 = experiment: Proximity ligation assay (PLA) ERα / SP-1; assay type: cell-based, human (hERα) in HEK293T cells; settings: 1 μM; HEK293T overexpressing hGLP-1R and ERα
[1] = tested on: G-protein coupled estrogen receptor 1 (GPER1); experiment: cAMP production in GPER1+ HEK293T cells; assay type: cell-based
GLP-1R+ HEK293T cells = experiment: estrone-3-sulfate ELISA in cell lysate; assay type: cell-based; settings: 1 μM, 2 h
ERα = target: T1, ERα (Homo sapiens, UniProt P03372); experiment: Estrogen response element (ERE) luciferase reporter; assay type: cell-based, human (hERα) in HEK293T cells; settings: bafilomycinA1 (5 μM) or EN6 (50 μM) with E2 or E2-3-ether; 24 h
T1 sequence (P03372 1-595): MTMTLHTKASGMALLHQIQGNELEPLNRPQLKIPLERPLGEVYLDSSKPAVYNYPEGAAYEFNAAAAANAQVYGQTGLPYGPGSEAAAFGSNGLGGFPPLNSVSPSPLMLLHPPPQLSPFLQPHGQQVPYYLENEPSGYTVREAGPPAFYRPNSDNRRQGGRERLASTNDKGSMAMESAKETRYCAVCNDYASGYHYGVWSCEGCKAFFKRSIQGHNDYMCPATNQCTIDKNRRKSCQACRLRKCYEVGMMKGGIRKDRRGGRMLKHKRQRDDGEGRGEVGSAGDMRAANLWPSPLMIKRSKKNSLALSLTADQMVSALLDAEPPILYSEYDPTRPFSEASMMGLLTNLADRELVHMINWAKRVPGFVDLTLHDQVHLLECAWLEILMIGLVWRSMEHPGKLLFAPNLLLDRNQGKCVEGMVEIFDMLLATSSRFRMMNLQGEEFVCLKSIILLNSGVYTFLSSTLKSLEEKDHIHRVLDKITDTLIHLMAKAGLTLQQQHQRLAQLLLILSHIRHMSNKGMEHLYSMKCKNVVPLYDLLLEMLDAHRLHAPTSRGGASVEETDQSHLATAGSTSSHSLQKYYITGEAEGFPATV

[2] = tested on: GLP-1R / Rab5+ early endosomes; experiment: GLP-1R colocalization with Rab5+ early endosomes, BRET; settings: with GLP-1 (7-36)amide (1 μM)
hGLP-1R [3] = target: T2, hGLP-1R (Homo sapiens, UniProt P43220); experiment: Nluc-mGαq recruitment to GLP-1R, BRET, MIN6; assay type: cell-based, human (hGLP-1R) in mouse MIN6 cells
T2 sequence (P43220 24-463): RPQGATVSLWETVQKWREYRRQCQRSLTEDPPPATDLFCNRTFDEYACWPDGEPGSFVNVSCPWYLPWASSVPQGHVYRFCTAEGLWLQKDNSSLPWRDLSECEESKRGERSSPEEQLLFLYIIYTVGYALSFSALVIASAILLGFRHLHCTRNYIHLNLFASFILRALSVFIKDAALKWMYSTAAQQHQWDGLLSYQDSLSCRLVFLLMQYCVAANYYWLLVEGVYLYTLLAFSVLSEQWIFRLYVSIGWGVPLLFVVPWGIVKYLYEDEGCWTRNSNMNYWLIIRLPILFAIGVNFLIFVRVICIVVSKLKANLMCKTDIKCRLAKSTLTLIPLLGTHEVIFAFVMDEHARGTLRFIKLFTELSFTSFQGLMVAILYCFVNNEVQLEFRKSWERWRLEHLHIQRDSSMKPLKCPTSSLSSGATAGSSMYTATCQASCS

hGLP-1R [4] = target: T2, hGLP-1R; experiment: Nluc-mGαs recruitment to GLP-1R, BRET, MIN6; assay type: cell-based, human (hGLP-1R) in mouse MIN6 cells
hGLP-1R [5] = target: T2, hGLP-1R; experiment: β-arrestin-2-Rluc8 recruitment, BRET, MIN6; assay type: cell-based, human (hGLP-1R) in mouse MIN6 cells
hGLP-1R [6] = target: T2, hGLP-1R; experiment: Nluc-mGαs recruitment to GLP-1R-GFP, BRET; assay type: cell-based, human (hGLP-1R) in HEK293T cells
hGLP-1R [7] = target: T2, hGLP-1R; experiment: Nluc-mGαs recruitment to GLP-1R, BRET, CLU177; assay type: cell-based, human (hGLP-1R) in mouse CLU177 cells
hGLP-1R [8] = target: T2, hGLP-1R; experiment: Nluc-mGαq recruitment to GLP-1R-GFP, BRET; assay type: cell-based, human (hGLP-1R) in HEK293T cells
hGLP-1R [9] = target: T2, hGLP-1R; experiment: GLP-1R-Rluc8 internalization, BRET, CLU177; assay type: cell-based, human (hGLP-1R) in mouse CLU177 cells
hGLP-1R [10] = target: T2, hGLP-1R; experiment: cAMP production, CAMYEL BRET; assay type: cell-based, human (hGLP-1R) in HEK293T cells
hGLP-1R [11] = target: T2, hGLP-1R; experiment: β-arrestin-2-Rluc8 recruitment to GLP-1R-GFP, BRET; assay type: cell-based, human (hGLP-1R) in HEK293T cells
hGLP-1R [12] = target: T2, hGLP-1R; experiment: GLP-1R-Rluc8 internalization, BRET, MIN6; assay type: cell-based, human (hGLP-1R) in mouse MIN6 cells
hGLP-1R [13] = target: T2, hGLP-1R; experiment: GLP-1R-Rluc8 internalization away from GFP-CAAX, BRET; assay type: cell-based, human (hGLP-1R) in HEK293T cells
hGLP-1R [14] = target: T2, hGLP-1R; experiment: cAMP production, BRET, MIN6; assay type: cell-based, human (hGLP-1R) in mouse MIN6 cells
hGLP-1R [15] = target: T2, hGLP-1R; experiment: cAMP production, BRET, CLU177; assay type: cell-based, human (hGLP-1R) in mouse CLU177 cells
hGLP-1R [16] = target: T2, hGLP-1R; experiment: β-arrestin-2-Rluc8 recruitment, BRET, CLU177; assay type: cell-based, human (hGLP-1R) in mouse CLU177 cells

SMILES: C[C@]12CC[C@@H]3c4ccc(O)cc4CC[C@H]3[C@@H]1CC[C@@H]2O [E2, 17β-estradiol]
- PLA: proximal localization of ERα and SP-1 (ERα and SP-1): significantly increase the proximal localization of ERα and the nucleus-localized transcription factor specificity protein-1 (SP-1) relative to GLP-1 (7-36)amide
- cAMP production via GPER1 [1]: did not observe E2-or G1-driven cAMP production

SMILES: C[C@]12CC[C@@H]3c4ccc(OCC(=O)O)cc4CC[C@H]3[C@@H]1CC[C@@H]2O [E2-3-ether, estradiol 3-carboxymethyl ether]
- estrone-3-sulfate levels (GLP-1R+ HEK293T cells): significantly increased estrone-3-sulfate levels

SMILES: C=CC(=O)Nc1cc(NC(=O)c2cnn(-c3ccccc3F)c2)ccc1F [EN6]
- off-target effect on stimulated ERα activation (ERα): did not have off-target effects on stimulated ERα activation by E2 or E2-3-ether
- endosomal trafficking dynamics on EN6 treatment ([2]; 50 μM): without altering endosomal trafficking dynamics

SMILES: CC(=O)c1ccc2c(c1)C1C=CCC1C(c1cc3c(cc1Br)OCO3)N2 (centres unmarked) [G1]
- cAMP production via GPER1 [1]: did not observe E2-or G1-driven cAMP production

SMILES: CC[C@H](C)[C@H](NC(=O)[C@H](Cc1ccccc1)NC(=O)[C@H](CCC(=O)O)NC(=O)[C@H](CCCCN)NC(=O)[C@H](C)NC(=O)[C@H](C)NC(=O)[C@H](CCC(N)=O)NC(=O)[C@H](CCC(=O)O)NC(=O)[C@H](CCC(=O)O)NC(=O)[C@H](CC(C)C)NC(=O)[C@H](Cc1ccc(O)cc1)NC(=O)[C@H](CO)NC(=O)[C@H](CO)NC(=O)[C@@H](NC(=O)[C@H](CC(=O)O)NC(=O)[C@H](CO)NC(=O)[C@@H](NC(=O)[C@H](Cc1ccccc1)NC(=O)[C@@H](NC(=O)CNC(=O)[C@H](CCC(=O)O)NC(=O)C(C)(C)NC(=O)[C@@H](N)Cc1c[nH]cn1)[C@@H](C)O)[C@@H](C)O)C(C)C)C(=O)N[C@@H](C)C(=O)N[C@@H](Cc1c[nH]c2ccccc12)C(=O)N[C@@H](CC(C)C)C(=O)N[C@H](C(=O)N[C@@H](CCCCN)C(=O)NCC(=O)NCC(=O)N1CCC[C@H]1C(=O)N[C@@H](CO)C(=O)N[C@@H](CO)C(=O)NCC(=O)N[C@@H](C)C(=O)N1CCC[C@H]1C(=O)N1CCC[C@H]1C(=O)N1CCC[C@H]1C(=O)N[C@@H](CO)C(=O)N[C@@H](CCCCNC(=O)COc1ccc2c(c1)CC[C@@H]1[C@@H]2CC[C@]2(C)[C@@H](O)CC[C@@H]12)C(N)=O)C(C)C [GLP-1-CEX/E2]
- EC50 (hGLP-1R [3]): 245 nM
- Emax (hGLP-1R [3]; MIN6): 76.7 ± 12.2%
- EC50 (hGLP-1R [4]): 143 nM
- Emax (hGLP-1R [4]; MIN6): 95.4 ± 7.7%
- EC50 (hGLP-1R [5]): 39.2 nM
- Emax (hGLP-1R [5]; MIN6): 99 ± 4.9%
- EC50 (hGLP-1R [6]): 44.6 nM
- Emax (hGLP-1R [6]; HEK-293T): 94.2 ± 5.2%
- EC50 (hGLP-1R [7]): 62.2 nM
- Emax (hGLP-1R [7]): 103 ± 5.7%
- EC50 (hGLP-1R [8]): 47.8 nM
- Emax (hGLP-1R [8]; HEK-293T): 94 ± 9%
- EC50 (hGLP-1R [9]): 142 nM
- Emax (hGLP-1R [9]): 97.4 ± 14.8%
- EC50 (hGLP-1R [10]): 16.8 nM
- Emax (hGLP-1R [10]; HEK-293T): 111 ± 5.3%
- EC50 (hGLP-1R [11]): 29.5 nM
- Emax (hGLP-1R [11]; HEK-293T): 100 ± 2.6%
- EC50 (hGLP-1R [12]): 158 nM
- Emax (hGLP-1R [12]; MIN6): 98.6 ± 9.3%
- EC50 (hGLP-1R [13]): 5.01 nM
- Emax (hGLP-1R [13]; HEK-293T): 90.9 ± 1.5%
- EC50 (hGLP-1R [14]): 0.963 nM
- Emax (hGLP-1R [14]; MIN6): 99.1 ± 4%
- EC50 (hGLP-1R [15]): 0.0316 nM
- Emax (hGLP-1R [15]): 106 ± 6.2%
- EC50 (hGLP-1R [16]): 162 nM
- Emax (hGLP-1R [16]): 95.9 ± 4.1%

SMILES: CO/C1=C\C(C)=C\[C@@H](C)[C@@H](O)[C@@H](C)C/C(C)=C/C=C/[C@H](OC)[C@@H]([C@@H](C)[C@@H](O)[C@H](C)[C@@]2(O)C[C@@H](O)[C@H](C)[C@@H](C(C)C)O2)OC1=O [bafilomycinA1]
- off-target effect on stimulated ERα activation (ERα): did not have off-target effects on stimulated ERα activation by E2 or E2-3-ether
- GLP-1R internalization on bafilomycinA1 pre/co-treatment (hGLP-1R [13]; 5 μM, with GLP-1 (7-36)amide (1 μM)): without affecting receptor internalization
- GLP-1R retention in Rab5+ early endosomes on bafilomycinA1 pre/co-treatment ([2]; 5 μM): significantly increases GLP-1R retention in Rab5^+ early endosomes

SMILES: C=C[C@@]1(C)CC(=O)[C@]2(O)[C@@]3(C)[C@@H](O)CCC(C)(C)[C@@H]3[C@H](O)[C@H](OC(C)=O)[C@@]2(C)O1 [forskolin, reference compound]
- saturation of the cAMP sensor (hGLP-1R [10]; forskolin 50 μM, hGLP-1R+ HEK293T): Saturation of the cAMP sensor was not achieved
